From EP4722201A1, “3-PHENYLISOXAZOLINE-5-CARBOXAMIDE COMPOUND, AND PREPARATION METHOD THEREFOR, HERBICIDAL COMPOSITION THEREOF AND USE THEREOF” (Jiangsu Flag Chemical Industry Co., Ltd, priority 2023, dated 2024)

What was measured:
Format in all cases: in vivo
Cyperus iria = assay: Indoor herbicide activity determination, post-emergence (stem and leaf spray at 2-4 leaf stage); conditions: 504 h, 60 g a.i./ha, determined 21 days later, read-out: Inhibition rate of fresh weight, Cyperus iria
Method in brief: (§1)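 Potted weeds in sandy nutrient soil (pH 6.1, 1% organic matter) were grown in a constant-temperature illuminated room to the 2-4 leaf stage, then given a stem-and-leaf spray. Plants went back to the culture room once the spray had dried in shade. At 21 days, fresh weight inhibition % was calculated relative to untreated control plants.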

Eclipta prostrata = assay: as above; conditions: 504 h, 60 g a.i./ha, determined 21 days later, read-out: Inhibition rate of fresh weight, Eclipta prostrata
Method in brief: as §1

Digitaria sanguinalis = assay: as above; conditions: 504 h, 60 g a.i./ha, determined 21 days later, read-out: Inhibition rate of fresh weight, Digitaria sanguinalis
Method in brief: as §1

Alopecurus myosuroides = assay: Indoor herbicide activity determination, Seed Treatment; pre-emergence (soil spray); conditions: Dosage 240 g a.i./ha
Method in brief: (§2)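 Sow seeds into soil-filled 7 cm pots (sandy, pH 6.1, 1% organic matter) and cover them. Water from beneath, then incubate 24 h in a lit, temperature-controlled chamber. Spray the soil in a traveling tower, let it dry in shade, grow on 21 days, and weigh fresh biomass against controls.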

Leptochloa chinensis = assay: as above; conditions: Dosage 240 g a.i./ha
Method in brief: as §2

Alopecurus japonicus = assay: as above; conditions: Dosage 240 g a.i./ha
Method in brief: as §2

Lolium multiflorum = assay: as above; conditions: Dosage 240 g a.i./ha
Method in brief: as §2

Eleusine indica = assay: as above; conditions: Dosage 240 g a.i./ha
Method in brief: as §2

| Compound | inhibition at 60 g/ha (Cyperus iria) | inhibition at 60 g/ha (Eclipta prostrata) | inhibition at 60 g/ha (Digitaria sanguinalis) | Herbicidal activities, Alopecurus myosuroides (inhibition rate class) (Alopecurus myosuroides) | Herbicidal activities, Leptochloa chinensis (inhibition rate class) (Leptochloa chinensis) | Herbicidal activities, Alopecurus japonicus (inhibition rate class) (Alopecurus japonicus) | Herbicidal activities, Lolium multiflorum (inhibition rate class) (Lolium multiflorum) | Herbicidal activities, Eleusine indica (inhibition rate class) (Eleusine indica) |
| --- | --- | --- | --- | --- | --- | --- | --- | --- |
| COC(=O)[C@H]1C[C@@H](NC(=O)C2(C)CC(c3cc(F)cc(Cl)c3)=NO2)C1 (mixture of isomers) [I-134] | 80 to 100% | 60 to 80% | 80 to 100% | A (A indicates that the inhibition rate was greater than or equal to 80% to 100%) | A (A indicates that the inhibition rate was greater than or equal to 80% to 100%) | A (A indicates that the inhibition rate was greater than or equal to 80% to 100%) | A (A indicates that the inhibition rate was greater than or equal to 80% to 100%) | A (A indicates that the inhibition rate was greater than or equal to 80% to 100%) |
| CC1(C(=O)N[C@H]2C[C@@H](C(=O)O)C2)CC(c2cc(F)cc(F)c2)=NO1 (mixture of isomers) [I-111] | 80 to 100% | 60 to 80% | 80 to 100% | A (A indicates that the inhibition rate was greater than or equal to 80% to 100%) | A (A indicates that the inhibition rate was greater than or equal to 80% to 100%) | A (A indicates that the inhibition rate was greater than or equal to 80% to 100%) | A (A indicates that the inhibition rate was greater than or equal to 80% to 100%) | A (A indicates that the inhibition rate was greater than or equal to 80% to 100%) |
| COC(=O)[C@H]1C[C@@H](NC(=O)C2(C)CC(c3cc(F)cc(OC(F)(F)F)c3)=NO2)C1 (mixture of isomers) [I-159] | 60 to 80% | 60 to 80% | 80 to 100% | A (A indicates that the inhibition rate was greater than or equal to 80% to 100%) | A (A indicates that the inhibition rate was greater than or equal to 80% to 100%) | A (A indicates that the inhibition rate was greater than or equal to 80% to 100%) | A (A indicates that the inhibition rate was greater than or equal to 80% to 100%) | A (A indicates that the inhibition rate was greater than or equal to 80% to 100%) |
| COC(=O)[C@H]1C[C@@H](NC(=O)C2(C(F)(F)F)CC(c3cccc(F)c3)=NO2)C1 (relative stereo) [I-270] | 80 to 100% | 40 to 60% | 80 to 100% | A (A indicates that the inhibition rate was greater than or equal to 80% to 100%) | A (A indicates that the inhibition rate was greater than or equal to 80% to 100%) | A (A indicates that the inhibition rate was greater than or equal to 80% to 100%) | A (A indicates that the inhibition rate was greater than or equal to 80% to 100%) | A (A indicates that the inhibition rate was greater than or equal to 80% to 100%) |
| CC1(C(=O)N[C@H]2C[C@@H](C(=O)O)C2)CC(c2cc(F)cc(Cl)c2)=NO1 (mixture of isomers) [I-132] | 80 to 100% | 60 to 80% | 80 to 100% | A (A indicates that the inhibition rate was greater than or equal to 80% to 100%) | A (A indicates that the inhibition rate was greater than or equal to 80% to 100%) | A (A indicates that the inhibition rate was greater than or equal to 80% to 100%) | A (A indicates that the inhibition rate was greater than or equal to 80% to 100%) | A (A indicates that the inhibition rate was greater than or equal to 80% to 100%) |
| COC(=O)[C@H]1C[C@@H](NC(=O)C2(C(F)(F)F)CC(c3cc(F)cc(C(F)(F)F)c3)=NO2)C1 (relative stereo) [I-243] | 80 to 100% | 60 to 80% | 80 to 100% | A (A indicates that the inhibition rate was greater than or equal to 80% to 100%) | A (A indicates that the inhibition rate was greater than or equal to 80% to 100%) | A (A indicates that the inhibition rate was greater than or equal to 80% to 100%) | A (A indicates that the inhibition rate was greater than or equal to 80% to 100%) | A (A indicates that the inhibition rate was greater than or equal to 80% to 100%) |
| C=CC1(C(=O)N[C@H]2C[C@@H](C(=O)O)C2)CC(c2cc(F)cc(C(F)(F)F)c2)=NO1 (mixture of isomers) [I-49] | 80 to 100% | 60 to 80% | 60 to 80% | A (A indicates that the inhibition rate was greater than or equal to 80% to 100%) | A (A indicates that the inhibition rate was greater than or equal to 80% to 100%) | A (A indicates that the inhibition rate was greater than or equal to 80% to 100%) | A (A indicates that the inhibition rate was greater than or equal to 80% to 100%) | A (A indicates that the inhibition rate was greater than or equal to 80% to 100%) |
| CC1(C(=O)N[C@H]2C[C@@H](C(=O)O)C2)CC(c2cc(Cl)cc(Cl)c2)=NO1 (mixture of isomers) [I-137] | 80 to 100% | 40 to 60% | 80 to 100% | A (A indicates that the inhibition rate was greater than or equal to 80% to 100%) | A (A indicates that the inhibition rate was greater than or equal to 80% to 100%) | A (A indicates that the inhibition rate was greater than or equal to 80% to 100%) | A (A indicates that the inhibition rate was greater than or equal to 80% to 100%) | A (A indicates that the inhibition rate was greater than or equal to 80% to 100%) |
| O=C(N[C@H]1C[C@@H](C(=O)O)C1)C1(C(F)(F)F)CC(c2cc(F)cc(Cl)c2)=NO1 (mixture of isomers) [I-223] | 80 to 100% | 60 to 80% | 80 to 100% | A (A indicates that the inhibition rate was greater than or equal to 80% to 100%) | A (A indicates that the inhibition rate was greater than or equal to 80% to 100%) | A (A indicates that the inhibition rate was greater than or equal to 80% to 100%) | A (A indicates that the inhibition rate was greater than or equal to 80% to 100%) | A (A indicates that the inhibition rate was greater than or equal to 80% to 100%) |
| O=C(N[C@H]1C[C@@H](C(=O)O)C1)C1(C(F)(F)F)CC(c2cc(F)cc(C(F)(F)F)c2)=NO1 (relative stereo) [I-241] | 80 to 100% | 60 to 80% | 80 to 100% | A (A indicates that the inhibition rate was greater than or equal to 80% to 100%) | A (A indicates that the inhibition rate was greater than or equal to 80% to 100%) | A (A indicates that the inhibition rate was greater than or equal to 80% to 100%) | A (A indicates that the inhibition rate was greater than or equal to 80% to 100%) | A (A indicates that the inhibition rate was greater than or equal to 80% to 100%) |
| C=CC1(C(=O)N[C@H]2C[C@@H](C(=O)O)C2)CC(c2cc(F)cc(OC(F)(F)F)c2)=NO1 (mixture of isomers) [I-57] | 80 to 100% | 60 to 80% | 80 to 100% | A (A indicates that the inhibition rate was greater than or equal to 80% to 100%) | A (A indicates that the inhibition rate was greater than or equal to 80% to 100%) | A (A indicates that the inhibition rate was greater than or equal to 80% to 100%) | A (A indicates that the inhibition rate was greater than or equal to 80% to 100%) | A (A indicates that the inhibition rate was greater than or equal to 80% to 100%) |
